Data on six molecules can be found in article PMC10065791 (eLife, 2023).

The test system of assay [1] is HIV-1 NL4-3 wild-type virus. Briefly: Selection for resistance in CEMx174 culture with escalating inhibitor, start wild-type virus, Primer ID deep sequencing. Type of assay: cell-based. The protocol: . The selection experiments were performed under two separate starting conditions: first when the starting virus was generated from the NL4-3 clone (this clone closely approximates the clade B consensus for the protease amino acid sequence and will be referred to as ‘wild type’), then again when the starting virus was a mixture of 26 isogenic viruses each with a single mutation associated with drug resistance in the NL4-3 background. […]. For technical reasons, only five of the selections starting with the mixture of mutants reached an inhibitor concentration as high as 400 nM and are reported here (Figure 2—figure supplement 3).
Resistance mutations selected in the protease coding domain during the escalating selective pressure of increasing PI concentration were examined at various timepoints using a next-generation sequencing (NGS) protocol that included Primer ID with the MiSeq platform ([Zhou et al., 2015]). We first examined the sequence of the most abundant variant in each of the two selection schemes present at the highest inhibitor concentration reached (Figure 2A). For those selections that reached 5 μM, 8–14 mutations were present in the most abundant variant. Typically the next two most abundant variants in the population differed by a single amino acid, and on average the three most abundant variants in the 5 μM cultures accounted for 88% of the total viral population (Figure 2—source data 1). Evolution of resistance followed two pathways, one based on I50V and one based on I84V. In three cultures, V2wt, V5wt, and V2mut (which reached either 4 or 5 μM final drug concentration; V2wt indicates the virus pool selected with UMASS-2 starting with wild-type virus), these two mutations, I84V and I50V, became linked on the same genome (Figure 2A) showing they are not mutually exclusive; […].
An aliquot of 3 × 10^6 CEMx174 cells was incubated at 37°C for 2–3 hr with 250 µl of a virus stock generated from the HIV-1 infectious molecular clone pNL4-3. The culture volume was then brought to 10 ml with RPMI medium. […] After 48 hr and every 48 hr after, the cells were pelleted by centrifugation and 10 ml of fresh medium and inhibitors were added. When the culture had undergone extensive cytopathic effect (CPE) indicative of viral replication, the supernatant medium and the cells were harvested separately and stored at –80°C. The virus-containing supernatant was used to start the next round of infection, and after several rounds at the initial concentration, the inhibitor concentration was increased 1.5-fold at each subsequent round of virus passage.
We used the PID protocol to prepare MiSeq PID libraries with multiplexed primers. Viral RNA was extracted from plasma samples using the QIAamp viral RNA mini kit (QIAGEN, Hilden, Germany). Complementary DNA (cDNA) was synthesized using a cDNA primer mixture targeting protease (PR) with a block of random nucleotides in each cDNA primer serving as the PID, and SuperScript III RT (Thermo Fisher). After two rounds of bead purification of the cDNA, we amplified the cDNA using a mixture of a forward primer that targeted the upstream coding region, followed by a second round of PCR to incorporate the Illumina adaptor sequences. Gel-purified libraries were pooled and sequenced using the MiSeq 300 base paired-end sequencing protocol (Illumina). The sequencing covered the HIV-1 PR region (HXB2 2648-2914, 3001-3257).
We used the Illumina bcl2fastq pipeline for the initial processing and constructed template consensus sequences (TCSs) with TCS pipeline version 1.33 (https://github.com/SwanstromLab/PID) ([Zhou, 2019]). We then aligned TCSs to an HXB2 reference to remove sequences not at the targeted region or that had large deletions. We used the Entropy tool at LANL (https://www.hiv.lanl.gov/content/sequence/ENTROPY/entropy.html) to calculate entropy for each specimen. The sequencing data is available at NIH Sequencing Read Archive (SRA) under BioProject ID PRJNA853351.

The test system of another assay is wild-type virus NL4-3. The assay is described as follows: TZM infection assay (cell culture-based viral inhibition), wild-type virus. To be noted: Human immunodeficiency virus 1, NL43; wild-type NL4-3 virus; concentration at time of virus production reducing infectivity by 50%; TZM-bl readout. Set-up: species or system HIV-1. As for the experimental part: PI dilutions were prepared by taking 10 µM stocked and performing a fivefold serial dilution using RPMI media (final drug concentration is […]). One dilution of drug was added to each well of a 24-well plate and repeated so each virus would have a full set of dilutions. Viruses for the assay were made by seeding 3 × 10^6 CEM cells in a 24-well plate and incubating with 250 µl of virus at 37°C for 2–3 hr before bringing the culture to 10 ml with RPMI media. After 48 hr, the medium was changed and repeated every 48 hr after until the culture had undergone CPE. Infected CEM cells were collected and diluted so that 1 ml of cells could be plated in each well containing a unique drug dilution. Then 24 hr later the virus supernatant was collected from each well followed by filtering through a […] then placed in –80°C. Viruses were thawed and added to 96-well plates in triplicate. TZM-bl cells were collected and diluted to a concentration of 2 × 10^5 cells/ml, 100 µl were added on top of the pre-plated viruses. Plates were kept in 37°C, 5% CO2 in an incubator for 48 hr. After 48 hr, the cells in the plates were lysed by removing the medium, washing two times with 100 µl PBS, and then lysed with 1× lysis buffer (made from 5× Promega Firefly Lysis Buffer). Plates were frozen for at least 24 hr and then thawed for 2 hr before analyzing with Promega Firefly Luciferase Kit on a luminometer. Data was analyzed with Prism 7 to fit sigmoidal dose–response curves.

A word on the EC50: it is the concentration that produces a half-maximal response. A lower EC50 goes with a more potent agent. As for `CCC(CC)CN(C[C@@H](O)[C@H](Cc1ccccc1)NC(=O)O[C@H]1CO[C@H]2OCC[C@H]21)S(=O)(=O)c1ccc2c(c1)OCO2` [UMASS-9], the “Abundance of variant at the last time point” value (“Abundance of variant” below) is 0.7% in assay [1] (variant 10F/13V/33F/41K/45R/46I/47V/50V/53L/54L/66F/71V/74A/76S/82I, passage 78, [PI] 5000 nM); 92.3% in assay [1] (variant 10F/13V/33F/45R/46I/47V/50V/53L/54L/66F/71V/74A/76S/82I, passage 78, [PI] 5000 nM); 0.4% in assay [1] (variant 10F/13V/33F/45R/46I/47V/50V/53L/54L/66F/71V/74A/76S/82I/87K, passage 78, [PI] 5000 nM). In the assay with wild-type virus NL4-3, this molecule displayed a concentration giving a half-maximal response (EC50) of 6.4 ± 1.2 nM.

`CCC(CC)CN(C[C@@H](O)[C@H](Cc1ccccc1)NC(=O)O[C@H]1CO[C@H]2OCC[C@H]21)S(=O)(=O)c1ccc(N)cc1` [UMASS-6]: the “Abundance of variant” value is given as 2.2% in assay [1] (variant 10F/13V/16E/33F/46I/47A/50V/53L/71V, passage 46, [PI] 5000 nM); 42.3% in assay [1] (variant 10F/13V/33F/46I/47A/50V/53L/63P/71V, passage 46, [PI] 5000 nM); 45.1% in assay [1] (variant 10F/13V/33F/46I/47A/50V/53L/71V, passage 46, [PI] 5000 nM). The molecule further registered an EC50 in the assay on wild-type virus NL4-3 of 5.2 ± 0.8 nM.

In the case of `CCC(CC)CN(C[C@@H](O)[C@H](Cc1ccccc1)NC(=O)O[C@H]1CO[C@H]2OCC[C@H]21)S(=O)(=O)c1ccc(OC)cc1` [UMASS-7], the “Abundance of variant” value is given as 0.2% in assay [1] (variant 10F/13V/33F/46I/47V/50V/53L/54L/67Y/71V/82I, passage 76, [PI] 5000 nM); 94.5% in assay [1] (variant 10F/13V/33F/46I/47V/50V/53L/54L/71V/82I, passage 76, [PI] 5000 nM); 0.2% in assay [1] (variant 10F/13V/33F/46I/47V/50V/53L/54L/71V/82I/87K, passage 76, [PI] 5000 nM). The molecule further displayed an EC50 in the assay with wild-type virus NL4-3 of 3.1 ± 0.5 nM.

For `CC[C@H](C)CN(C[C@@H](O)[C@H](Cc1ccccc1)NC(=O)O[C@H]1CO[C@H]2OCC[C@H]21)S(=O)(=O)c1ccc2ncsc2c1` [UMASS-5], the “Abundance of variant” value in assay [1] (variant 10F/15V/46I/47V/50V/53L/71V/82I/84V/89T, passage 77, [PI] 5000 nM) was 67.9%; in assay [1] (variant 10F/46I/47V/50V/53L/63P/71V/82I/84V/89M, passage 77, [PI] 5000 nM), 8.8%; in assay [1] (variant 10F/46I/47V/50V/53L/71V/82I/84V/89T, passage 77, [PI] 5000 nM) it was 10.9%. The same molecule registered an EC50 with wild-type virus NL4-3 of 4 ± 0.5 nM.

For the molecule `CC[C@H](C)CN(C[C@@H](O)[C@H](Cc1ccccc1)NC(=O)O[C@H]1CO[C@H]2OCC[C@H]21)S(=O)(=O)c1ccc(CO)cc1` [UMASS-3], the “Abundance of variant” value in assay [1] (variant 10F/33F/46I/47V/50V/53L/63P/71V/76S/82I, passage 93, [PI] 5000 nM) stood at 0.9%; in assay [1] (variant 10F/33F/46I/47V/50V/53L/63P/71V/76S/82I/85V/89I, passage 93, [PI] 5000 nM) it was 85.7%; in assay [1] (variant 10F/33F/46I/47V/50V/53L/63P/71V/76S/82I/85V/89I/91S, passage 93, [PI] 5000 nM) it was 1.1%. Besides, a half-maximal response with wild-type virus NL4-3 (EC50) required 9.1 ± 1 nM.

Regarding `CC[C@H](C)CN(C[C@@H](O)[C@H](Cc1ccccc1)NC(=O)O[C@H]1CO[C@H]2OCC[C@H]21)S(=O)(=O)c1ccc2c(c1)OCO2` [UMASS-4], the “Abundance of variant” value turned out to be 87.3% in assay [1] (variant 10F/11I/13V/32I/33F/43T/46L/54L/71V/82I/84V/89M/91S/92R, passage 81, [PI] 5000 nM); 1.3% in assay [1] (variant 10F/11I/32I/33F/43T/46L/54L/71V/82I/84V/89M/91S, passage 81, [PI] 5000 nM); 1.1% in assay [1] (variant 10F/11I/32I/33F/46L/54L/71V/82I/84V/89M/91S, passage 81, [PI] 5000 nM). This molecule also came in with an EC50 with wild-type virus NL4-3 of 3.2 ± 0.4 nM.
